We go through 9 compounds from ChEMBL document CHEMBL4007472, “Identification of novel TACE inhibitors compatible with topical application” (Bioorg Med Chem Lett, 2017).

As usually defined, the solubility is the dissolved amount per volume that the medium holds. Read a low solubility as a poorly soluble substance. Broadly, the half-life is the time needed for the level to fall by half in the phase considered. Read a low half-life as fast loss. The fraction unbound is free concentration divided by total concentration. Read a high fraction unbound as weak binding.

Molecules are shown by their SMILES. Values after ≈ are worked out from the molar mass of the structure shown.

Series [1] addresses T1, Disintegrin and metalloproteinase domain-containing protein 17 (Homo sapiens, UniProt P78536). The series can be described thus: Inhibition of TACE in human PBMC assessed as inhibition of TNFalpha production.
Series [2] deals with T1, Disintegrin and metalloproteinase domain-containing protein 17. The series can be described thus: Inhibition of recombinant human TACE catalytic domain using Mca-Pro-Leu-Ala-Gln-Ala-Val-Dpa-Arg-Ser-Ser-Ser-Arg-NH2 as substrate after 2 hrs by fluorescence assay.
Series [3] can be described thus: Aqueous solubility of the compound. The series is classed as physicochemical.
Series [4] addresses T1, Disintegrin and metalloproteinase domain-containing protein 17. Put plainly: Inhibition of TACE in NHEK assessed as reduction in LPS/TPA-stimulated TNFalpha production preincubated for 1 hr followed by LPS/TPA stimulation for 24 hrs by HTRF assay.
Series [5] has the same target. Put plainly: Inhibition of TACE (unknown origin).
Series [6] shares this target. The series can be described thus: Inhibition of TACE (unknown origin) by cell based assay.
Series [7] in a line: Stability in human liver microsomes assessed as parent compound remaining at 1 uM after 15 mins by LC-MS/MS analysis. The series is classed as ADME, microsome. Conditions: read-out: Stability. (Microsomes from liver hold many membrane-bound enzymes, among them those of drug oxidation.)
Series [8] is described as follows: Half life in human keratinocytes at 1 uM by LC-MS/MS analysis. The format is ADME, cell-based, Keratinocyte.
Series [9] has as its target Macrophage metalloelastase (Homo sapiens, UniProt P39900). The series can be described thus: Inhibition of MMP12 (unknown origin).
Series [10] can be described thus: Solubility of the compound in PG/EtOH96. The series is classed as physicochemical.
The target of series [11] is T2, Disintegrin and metalloproteinase domain-containing protein 10 (Homo sapiens, UniProt O14672).
T2 sequence (O14672 whole entry): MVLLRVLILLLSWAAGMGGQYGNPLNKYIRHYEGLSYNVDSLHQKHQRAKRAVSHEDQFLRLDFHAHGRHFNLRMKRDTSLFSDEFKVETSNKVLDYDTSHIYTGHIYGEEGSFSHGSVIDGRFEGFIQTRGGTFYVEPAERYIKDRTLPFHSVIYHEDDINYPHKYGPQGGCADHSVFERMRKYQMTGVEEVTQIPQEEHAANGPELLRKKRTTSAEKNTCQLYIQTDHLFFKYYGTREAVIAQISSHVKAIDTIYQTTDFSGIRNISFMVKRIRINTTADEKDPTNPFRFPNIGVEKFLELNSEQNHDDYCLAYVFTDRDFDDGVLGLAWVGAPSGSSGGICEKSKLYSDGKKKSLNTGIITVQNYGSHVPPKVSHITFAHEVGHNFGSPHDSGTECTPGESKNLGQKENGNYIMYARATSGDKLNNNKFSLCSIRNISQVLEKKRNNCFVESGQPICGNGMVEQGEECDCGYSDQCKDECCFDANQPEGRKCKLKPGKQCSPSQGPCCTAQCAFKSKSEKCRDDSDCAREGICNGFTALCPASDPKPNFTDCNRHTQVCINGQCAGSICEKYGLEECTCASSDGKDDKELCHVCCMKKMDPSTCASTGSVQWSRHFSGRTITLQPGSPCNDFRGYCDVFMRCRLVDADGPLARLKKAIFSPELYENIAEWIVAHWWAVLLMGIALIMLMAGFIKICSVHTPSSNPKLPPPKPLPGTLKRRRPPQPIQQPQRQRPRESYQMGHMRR
Put plainly: Inhibition of ADAM10 (unknown origin).

The next series concerns the target T3, Interstitial collagenase (Homo sapiens, UniProt P03956).
T3 sequence (P03956 whole entry): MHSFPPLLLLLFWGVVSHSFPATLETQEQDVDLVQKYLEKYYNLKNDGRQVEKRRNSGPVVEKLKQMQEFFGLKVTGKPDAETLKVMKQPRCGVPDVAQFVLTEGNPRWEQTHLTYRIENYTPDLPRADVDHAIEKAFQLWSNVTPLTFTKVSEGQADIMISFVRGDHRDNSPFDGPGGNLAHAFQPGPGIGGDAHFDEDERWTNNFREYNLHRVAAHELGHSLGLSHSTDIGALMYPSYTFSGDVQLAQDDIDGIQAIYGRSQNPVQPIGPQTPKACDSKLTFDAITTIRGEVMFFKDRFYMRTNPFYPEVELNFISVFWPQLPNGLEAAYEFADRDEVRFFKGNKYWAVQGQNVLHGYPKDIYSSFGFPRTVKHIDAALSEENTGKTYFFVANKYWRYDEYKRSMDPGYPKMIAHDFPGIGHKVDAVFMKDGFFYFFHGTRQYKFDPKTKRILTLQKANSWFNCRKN
The series can be described thus: Inhibition of recombinant human MMP1 catalytic domain using Mca-Pro-Leu-Gly-Leu-Dpa-Ala-Arg-NH2 as substrate after 10 mins by fluorescence assay.

The target of series [12] is Matrix metalloproteinase-9 (Homo sapiens, UniProt P14780). Put plainly: Inhibition of MMP9 (unknown origin).
Chain of Matrix metalloproteinase-9 (P14780 whole entry): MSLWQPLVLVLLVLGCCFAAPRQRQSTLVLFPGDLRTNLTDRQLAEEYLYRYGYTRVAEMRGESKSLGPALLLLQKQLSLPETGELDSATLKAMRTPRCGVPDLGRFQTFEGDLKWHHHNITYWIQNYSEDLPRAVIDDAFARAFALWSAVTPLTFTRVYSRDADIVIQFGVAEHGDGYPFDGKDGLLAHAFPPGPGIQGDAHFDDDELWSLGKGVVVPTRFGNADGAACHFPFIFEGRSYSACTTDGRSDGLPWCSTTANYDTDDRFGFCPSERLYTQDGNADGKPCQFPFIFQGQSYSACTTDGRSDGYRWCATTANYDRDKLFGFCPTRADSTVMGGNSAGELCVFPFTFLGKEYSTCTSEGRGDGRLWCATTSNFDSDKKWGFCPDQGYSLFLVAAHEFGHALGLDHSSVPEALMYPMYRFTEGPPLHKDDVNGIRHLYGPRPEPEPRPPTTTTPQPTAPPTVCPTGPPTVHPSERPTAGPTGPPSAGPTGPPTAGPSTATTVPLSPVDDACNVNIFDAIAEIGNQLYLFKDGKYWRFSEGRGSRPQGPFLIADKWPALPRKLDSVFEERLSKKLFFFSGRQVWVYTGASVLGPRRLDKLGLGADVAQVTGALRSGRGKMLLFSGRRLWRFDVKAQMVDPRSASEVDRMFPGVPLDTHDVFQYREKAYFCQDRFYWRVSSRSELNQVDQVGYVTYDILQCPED
A further series concerns the target Stromelysin-1 (Homo sapiens, UniProt P08254). The series can be described thus: Inhibition of MMP3 (unknown origin).
Series [13] can be described thus: Photoirritancy factor, ratio of EC50 for human neonatal keratinocytes under dark condition to EC50 for human neonatal keratinocytes under 5 J/cm2 UV light exposure. More on the design: species or system Neonatal keratinocyte.
Series [14] in a line: Fraction unbound in human plasma at 5 uM after 4 hrs by LC-MS/MS based equilibrium dialysis method. The series is classed as ADME, cell-free. On the technique in general: In equilibrium dialysis only unbound substance equilibrates across the membrane.
Series [15] addresses T4, Disintegrin and metalloproteinase domain-containing protein 9 (Homo sapiens, UniProt Q13443).
T4 sequence (Q13443 whole entry): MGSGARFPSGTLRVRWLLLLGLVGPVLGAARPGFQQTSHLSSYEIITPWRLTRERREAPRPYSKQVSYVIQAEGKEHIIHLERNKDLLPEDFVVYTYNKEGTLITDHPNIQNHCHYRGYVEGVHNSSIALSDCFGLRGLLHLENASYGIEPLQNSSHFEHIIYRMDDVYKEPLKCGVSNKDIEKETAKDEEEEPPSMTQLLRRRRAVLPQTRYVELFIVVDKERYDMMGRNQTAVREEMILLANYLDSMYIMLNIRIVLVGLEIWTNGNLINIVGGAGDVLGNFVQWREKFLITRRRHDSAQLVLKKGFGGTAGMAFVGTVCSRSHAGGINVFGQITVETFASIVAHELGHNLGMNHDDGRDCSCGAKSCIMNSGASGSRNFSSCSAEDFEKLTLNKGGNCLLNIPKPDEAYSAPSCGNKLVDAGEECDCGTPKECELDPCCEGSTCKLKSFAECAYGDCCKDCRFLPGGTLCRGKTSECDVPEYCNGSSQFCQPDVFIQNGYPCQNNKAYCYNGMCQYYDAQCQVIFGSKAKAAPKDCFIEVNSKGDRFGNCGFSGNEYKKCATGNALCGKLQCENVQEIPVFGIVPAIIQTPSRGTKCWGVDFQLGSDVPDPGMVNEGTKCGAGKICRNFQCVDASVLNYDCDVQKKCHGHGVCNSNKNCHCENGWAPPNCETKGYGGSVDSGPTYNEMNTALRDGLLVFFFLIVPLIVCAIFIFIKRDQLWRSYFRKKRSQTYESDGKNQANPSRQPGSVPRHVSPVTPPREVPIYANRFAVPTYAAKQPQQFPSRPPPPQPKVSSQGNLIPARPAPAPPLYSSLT
Put plainly: Inhibition of ADAM9 (unknown origin).

Series [16] can be described thus: Intrinsic clearance in human hepatocytes assessed per million cells at 1 uM up to 90 mins by LC-MS/MS analysis. The series is classed as ADME, cell-based, Hepatocyte. Conditions: read-out: CLH.

T1 sequence (P78536 whole entry, the tested form may be a part): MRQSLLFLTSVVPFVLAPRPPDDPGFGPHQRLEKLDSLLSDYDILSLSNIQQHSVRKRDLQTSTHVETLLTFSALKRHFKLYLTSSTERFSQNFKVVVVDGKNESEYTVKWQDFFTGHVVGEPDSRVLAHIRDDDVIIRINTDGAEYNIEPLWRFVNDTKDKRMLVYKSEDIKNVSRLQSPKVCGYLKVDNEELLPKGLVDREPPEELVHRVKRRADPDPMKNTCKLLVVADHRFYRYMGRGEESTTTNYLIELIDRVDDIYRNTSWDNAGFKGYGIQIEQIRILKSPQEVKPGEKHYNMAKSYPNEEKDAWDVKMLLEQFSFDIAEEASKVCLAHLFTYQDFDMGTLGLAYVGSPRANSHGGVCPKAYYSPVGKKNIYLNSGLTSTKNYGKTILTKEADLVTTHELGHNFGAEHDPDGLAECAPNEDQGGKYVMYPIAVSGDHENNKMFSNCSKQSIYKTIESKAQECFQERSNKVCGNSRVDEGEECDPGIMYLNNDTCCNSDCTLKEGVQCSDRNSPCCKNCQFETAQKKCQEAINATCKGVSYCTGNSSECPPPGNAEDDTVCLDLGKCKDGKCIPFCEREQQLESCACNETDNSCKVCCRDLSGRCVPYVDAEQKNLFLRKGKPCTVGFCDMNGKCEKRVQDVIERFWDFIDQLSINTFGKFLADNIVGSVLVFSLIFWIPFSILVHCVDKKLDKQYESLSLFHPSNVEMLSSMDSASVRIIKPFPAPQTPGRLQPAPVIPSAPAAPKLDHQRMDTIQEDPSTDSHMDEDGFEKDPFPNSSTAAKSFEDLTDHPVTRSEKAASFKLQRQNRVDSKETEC
Chain of Stromelysin-1 (P08254 whole entry): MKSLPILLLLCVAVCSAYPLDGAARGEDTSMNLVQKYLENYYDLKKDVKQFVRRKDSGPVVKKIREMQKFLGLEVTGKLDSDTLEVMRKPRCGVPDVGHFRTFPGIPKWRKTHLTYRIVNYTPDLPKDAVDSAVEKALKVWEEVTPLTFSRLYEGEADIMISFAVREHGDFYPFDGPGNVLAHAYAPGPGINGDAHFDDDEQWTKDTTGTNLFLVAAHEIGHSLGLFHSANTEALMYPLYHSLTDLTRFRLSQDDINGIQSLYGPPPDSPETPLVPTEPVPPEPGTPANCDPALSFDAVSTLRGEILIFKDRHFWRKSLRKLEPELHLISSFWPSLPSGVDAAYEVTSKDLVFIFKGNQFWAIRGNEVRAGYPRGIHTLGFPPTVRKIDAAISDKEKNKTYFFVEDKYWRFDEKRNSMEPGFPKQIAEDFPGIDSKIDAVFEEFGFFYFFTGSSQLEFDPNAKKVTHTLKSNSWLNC
Chain of Macrophage metalloelastase (P39900 whole entry): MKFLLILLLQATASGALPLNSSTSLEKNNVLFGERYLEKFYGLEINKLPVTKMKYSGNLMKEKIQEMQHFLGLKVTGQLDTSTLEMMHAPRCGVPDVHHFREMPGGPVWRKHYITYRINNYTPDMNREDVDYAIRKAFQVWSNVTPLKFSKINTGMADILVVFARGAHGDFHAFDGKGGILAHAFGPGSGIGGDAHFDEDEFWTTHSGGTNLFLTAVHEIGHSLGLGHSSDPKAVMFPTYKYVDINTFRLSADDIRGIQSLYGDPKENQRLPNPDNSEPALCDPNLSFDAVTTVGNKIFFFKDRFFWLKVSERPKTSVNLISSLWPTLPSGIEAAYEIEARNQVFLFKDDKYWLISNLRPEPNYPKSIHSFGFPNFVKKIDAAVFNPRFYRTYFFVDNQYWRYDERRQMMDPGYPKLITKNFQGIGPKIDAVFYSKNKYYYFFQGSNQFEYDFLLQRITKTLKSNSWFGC

For `CC1(C)SCCN(S(=O)(=O)c2ccc(OCC#CCO)cc2)[C@H]1C(=O)NO`, the values for the IC50 in series [1], in series [2] and in series [4] were 158 nM, 4 nM and 120 nM, respectively. In series [3], this compound displayed a solubility of 90 µM (≈ 37.3 µg/mL).

Regarding `CNC(=O)[C@@H]1Cc2ccc(cc2)OCCCC[C@H](C(=O)NO)[C@@H](CCCc2cc(C(F)(F)F)cc(C(F)(F)F)c2)C(=O)N1`, the IC50 in [5] is 31.6 nM; in series [6] (read-out: pIC50 (converted)), 316 nM.

Take `CNC(=O)[C@@H]1Cc2ccc(cc2)OCCCC[C@H](C(=O)NO)[C@@H](CCCc2ccc(Cl)cc2)C(=O)N1`: the values for the IC50 in series [5] and in [6] (read-out: pIC50 (converted)) were 3.16 nM and 398 nM, respectively.

With `Cc1cc(COc2ccc(S(=O)(=O)N3CCN(C(=O)C4CC4)C(C(=O)NO)C3)cc2)c2c(n1)CCCC2` (configuration not stated), the results for the IC50 in series [2] and in series [4] were 13 nM and 3100 nM, respectively. For the same compound, the concentration in solution in series [3] (solubility) came to 58 µM (≈ 30.7 µg/mL). Besides, in [7], the remaining at […], 1 µM is 88%.

For the compound `CC(=O)N1CCN(S(=O)(=O)c2ccc(OCc3cc(C)nc4c3CCCC4)cc2)CC1C(=O)NO` (configuration not stated), the IC50 was 14 nM in [2] and 9100 nM in series [4]. The same compound came in with a solubility in [3] of 61 µM (≈ 30.7 µg/mL). In series [7], the remaining at […], 1 µM was determined as 92%.

For the compound `CNC(=O)[C@@H]1Cc2ccc(cc2)OCCCC[C@H](C(=O)NO)[C@@H](CCCc2cc(OC)ccc2OC)C(=O)N1`, the IC50 in series [5] is 6.31 nM; in [6] (read-out: pIC50 (converted)), 3980 nM.

For `COCCOc1cc(CCC[C@H]2C(=O)N[C@H](C(=O)c3ccccc3)Cc3ccc(cc3)OCCCC[C@@H]2C(=O)NO)cc(OC)c1`, the IC50 was 79.4 nM in [5] and 15800 nM in series [6] (read-out: pIC50 (converted)).

For the compound `Cc1cc(COc2ccc(S(=O)(=O)N3CCN(C(=O)C(C)(C)C)C(C(=O)NO)C3)cc2)c2c(n1)CCCC2` (configuration not stated), in series [8], the half-life at 1 µM is above 24 h. The IC50 was 930 nM in series [9]; above 10000 nM in [11]; 12 nM in series [2]; above 10000 nM on Interstitial collagenase; above 10000 nM in series [12]; above 10000 nM against Stromelysin-1. The IC50 in series [15] was above 10000 nM; in series [4], 1300 nM. Also, the solubility in series [10] was above 55 µM; in series [3], 20 µM (≈ 10.9 µg/mL). Also, in [13], the “Ratio EC50” value worked out at 1. Moreover, the fraction unbound at 4 h, 5 µM in series [14] is 0.03. The hepatocyte CLint at […], 1 µM in [16] came to 14 µL/min/1e6 cells. In [7], the remaining at […], 1 µM is 47%.

`O=C(c1ccccc1)[C@@H]1Cc2ccc(cc2)OCCCC[C@H](C(=O)NO)[C@@H](CCCc2cc(Br)cc(Br)c2)C(=O)N1`: the IC50 was 79.4 nM in series [5] and 5000 nM in series [6] (read-out: IC50).
